{
  "source": "patent US20260262691A1",
  "about": "“USE OF VANILLYL ETHERS TO MODIFY FLAVOR” (Firmenich Incorporated, priority 2023, published 2026)",
  "key": {"[1]": {"assay": "Sensory panel rating of bitterness and astringency of liquid pea protein concentrate with vanillyl ethers", "assay_type": "in vivo", "settings": "pea protein 3 percent by weight in water, without sugar; vanillyl ether 0.5 ppm; sensory panelists, scale from 0 to 10", "experimental": "Liquid pea protein concentrate compositions were prepared (3 percent by weight in water) without sugar added. Control and test samples were prepared. To two test samples vanillyl ethyl ether (VEE) and vanillyl butyl ether (VBE) were added, respectively, at a concentration of 0.5 ppm. The control and test samples were evaluated by sensory panelists to rate the bitterness and astringency of the control sample and the two test samples on a scale from 0 to 10. Table 2 reports the mean difference between the bitterness and astringency scores between the control sample and each of the two test samples."}, "[2]": {"assay": "Sensory panel rating of characteristics of lemon tea beverage with vanillyl ethers", "assay_type": "in vivo", "settings": "lemon tea beverage with Stevia sweetener, VEE 0.5 ppm (phloretin 8 ppm where combined), scale from 0 to 10, higher = more intense", "experimental": "Samples of a lemon tea beverage were prepared.\nTwo test samples were prepared by adding (a) vanillyl ethyl ether (VEE) at a concentration of 0.5 ppm, and (b) vanillyl ethyl ether (VEE) at a concentration of 0.5 ppm and phloretin at a concentration of 8 ppm. The control and test samples were evaluated by sensory panelists to rate various characteristics of the control sample and the two test samples on a scale from 0 to 10."}},
  "data": [
    {"smiles": "CCCCOCc1ccc(O)c(OC)c1", "note": "[VBE, 4-(butoxymethyl)-2-methoxyphenol]", "values": [
      {"measurement": "Astringency: mean difference between scores of control sample and test sample", "setting": "[1]", "result": "−2.2"},
      {"measurement": "Bitterness: mean difference between scores of control sample and test sample", "setting": "[1]", "result": "−1.0"}
    ]},
    {"smiles": "CCOCc1ccc(O)c(OC)c1", "note": "[VEE, 4-(ethoxymethyl)-2-methoxyphenol]", "values": [
      {"measurement": "Astringency: mean difference between scores of control sample and test sample", "setting": "[1]", "result": "−1.5"},
      {"measurement": "Bitterness: mean difference between scores of control sample and test sample", "setting": "[1]", "result": "−0.5"},
      {"measurement": "Off Note Intensity (mean score)", "setting": "[2]; control 2.9", "result": 2.4},
      {"measurement": "Astringency (mean score)", "setting": "[2]; control 3.0", "result": 2.1},
      {"measurement": "Mouthfeel (mean score)", "setting": "[2]; control 3.1", "result": 3.5},
      {"measurement": "Bitterness (mean score)", "setting": "[2]; control 3.8", "result": 2.7},
      {"measurement": "Unfront Sweetness (mean score)", "setting": "[2]; control 4.5", "result": 4.7},
      {"measurement": "Lemon Flavor (mean score)", "setting": "[2]; control 4.6", "result": 4.8},
      {"measurement": "Lingering Sweetness (mean score)", "setting": "[2]; control 4.9", "result": 4.0},
      {"measurement": "Peak Sweetness (mean score)", "setting": "[2]; control 5.4", "result": 5.4}
    ]}
  ]
}
